Laboratory results as given in US20030091557A1, “Methods and compositions for modulating ACE-2 activity” (priority 2001, published 2003).
Entries after “also recorded” stand apart in the source; their conditions may differ.

Assays:
ACE-2 = ACE-2 (Homo sapiens, UniProt Q9BYF1); settings: cited from earlier work
[1] = test system: isolated aortic vascular rings; experiment: Developed isometric tension of isolated aortic vascular rings; design: species or system rat
Excerpt: FIG. 1. Synergistic effects of Angiotensin 1-9 (A1-9) on angiotensin II (AII)-induced vasoconstriction, representative experiment (experiment 9 from Table 3). Data are presented as the mean percentage of the maximal contractile response as defined by full KCl depolarization following treatment with angiotensin peptides for four separate rings used to determine average response at each concentration. Generated tension was plotted against peptide concentration and the resulting concentration-response curves were subjected to regression analysis to determine whether the effects of the combination of A1-9 and angiotensin II produced additivity or synergy.
The effects of graded doses of A1-9 (Fields et al., Peptide Research 4: 95-101 (1991)) or A1-10 (substrate control) alone or in combination (Tallarida, Drug Synergism and Dose-Effect Data Analysis, Chapman and Hall/CRC, New York (2000), Tallarida et al., Life Science 61: PL417-425 (1997)) with angiotensin II were examined on isolated aortic vascular rings developed tension in response to vasoactive substances. Aortas were removed from mature male Sprague-Dawley rats, cleared of connective tissue, and cut into 1 mm rings. Rings were mounted to an isometric force transducer and placed in Krebs-Henseleit solution bubbled with 95% O2/5% CO2 at 37° C. Rings were exposed to a 2 g preload, relaxed and then exposed to various concentrations of angiotensin peptides alone or in combination. Following angiotensin peptide dosing, rings were fully constricted with KCl to determine the maximum degree of vasoconstriction.

[2] = test system: awake, free-ranging Sprague-Dawley rats; experiment: Arterial pressure in awake, free-ranging Sprague-Dawley rats, intravenous infusion; type: in vivo; settings: awake rat
Description: FIG. 2. The effect of A1-9 on (A) mean arterial pressure ±SEM in the awake and freely-ranging rat (n=6 rats). Average mean arterial and pulse pressure as well as heart rate data were derived from the last 5 min of a 20 min continuous intravenous infusion period. * indicates a significant difference compared to vehicle-treated rats following analysis of variance and Dunnett's post-hoc test. A1-9 or angiotensin II (AII) continuous infusion doses are in μg/kg/min.
FIG. 3. The effect of A1-9 on angiotensin II-mediated pressor responses in normotensive awake male rats. Data are reported as average mean arterial pressure ±SEM (n=6 rats).
To investigate the effects of A1-9 on arterial pressure, A1-9 was administered to awake, free-ranging Sprague-Dawley rats via indwelling intravenous and arterial catheters. Intravenous infusion of A1-9 (1-3 μg/kg/min) in the awake rat produced a dose-dependent tonic increase in mean arterial pressure to a maximum of approximately 30 mmHg (FIG. 2). […] These responses seen with A1-9 were similar in magnitude to those induced by angiotensin II.
To examine any interactions induced by coadministration of A1-9 and angiotensin II, arterial pressure was monitored in the awake rat after they received either A1-9 (1 μg/kg/min) or saline coinfused with angiotensin II (1-100 ng/kg/min).

Chain of ACE-2 (Q9BYF1 18-805): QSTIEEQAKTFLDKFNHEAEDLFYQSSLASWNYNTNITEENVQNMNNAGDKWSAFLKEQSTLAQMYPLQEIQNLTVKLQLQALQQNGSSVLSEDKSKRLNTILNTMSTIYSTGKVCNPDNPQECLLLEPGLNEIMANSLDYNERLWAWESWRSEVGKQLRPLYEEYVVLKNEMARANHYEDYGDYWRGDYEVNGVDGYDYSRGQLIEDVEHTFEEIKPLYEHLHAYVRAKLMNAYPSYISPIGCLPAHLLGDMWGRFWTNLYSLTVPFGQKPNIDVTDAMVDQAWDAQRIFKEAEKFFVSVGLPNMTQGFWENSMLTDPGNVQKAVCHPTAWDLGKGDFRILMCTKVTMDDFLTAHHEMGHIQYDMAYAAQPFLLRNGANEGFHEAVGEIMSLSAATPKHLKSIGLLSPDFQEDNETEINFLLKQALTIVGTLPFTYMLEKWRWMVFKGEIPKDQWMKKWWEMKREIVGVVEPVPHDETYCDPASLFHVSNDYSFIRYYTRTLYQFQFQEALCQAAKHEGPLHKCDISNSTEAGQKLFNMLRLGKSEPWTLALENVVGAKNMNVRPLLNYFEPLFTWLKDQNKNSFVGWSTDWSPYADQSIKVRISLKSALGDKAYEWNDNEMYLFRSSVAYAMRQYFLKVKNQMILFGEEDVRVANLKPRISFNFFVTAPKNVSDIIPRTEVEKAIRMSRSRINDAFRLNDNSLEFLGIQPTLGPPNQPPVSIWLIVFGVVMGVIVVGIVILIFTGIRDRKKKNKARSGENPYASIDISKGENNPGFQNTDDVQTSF

Molecule	blockade of ACE-2 formation of A1-9 from angiotensin I (ACE-2)	potentiation of angiotensin II-mediated vasoconstriction ([1]; combined with angiotensin II, rat aortic rings)	maximum tension developed / effect on vascular tone, peptide alone ([1]; rat aortic rings)	factor by which relative potency of angiotensin II was increased beyond simple addition ([1]; shift of angiotensin II dose-effect curve by A1-9, rat aortic rings, FIG. 1)	effect on pressor response elicited by angiotensin II ([2]; coinfused with angiotensin II (1-100 ng/kg/min), A1-9 at 1 μg/kg/min)	increase in mean arterial pressure, maximum ([2]; intravenous infusion 1-3 μg/kg/min)
C[C@H](CS)C(=O)N1CCC[C@H]1C(=O)O [captopril]	not blocked	–	–	–	–	–
angiotensin 1-9 (DRVYIHPFH; Angiotensin 1-9; UniProt P01019 25-33, looked up) [A1-9, nonapeptide formed by removal of the C-terminal leucine from angiotensin I]	–	superadditive or synergistic interaction	no effect on vascular tone; also recorded: minimal	11.6 (95% confidence limits of 3.02-44.7)	potentiated the pressor response elicted by angiotensin II in an additive fashion	approximately 30 mmHg
